Results reported in patent US20250241895A1 (GH RESEARCH IRELAND LIMITED, priority 2022, published 2025).

Tested on: patients with postpartum depression (PPD)
Test: Clinical trial of inhaled 5-MeO-DMT in postpartum depression
Conditions: for BIMF functional domain Adjustment score / BIMF functional domain Infant Care score: maximum possible 12; for BIMF functional domain Mother-Child Interaction score / BIMF functional domain Self Care score / BIMF functional domain Social Support score: maximum possible 18; for BIMF functional domain Management score: maximum possible 36; for BIMF functional domain Psychological Well-being score: maximum possible 60
Procedure: The single-arm, open-label clinical trial will involve 15 adult female patients with clinically diagnosed postpartum depression (PPD).
The second dose (12 mg) will only be administered if: • a. […] The 6 mg dose was safe and well-tolerated according to the investigator, • c. Any psychoactive effects (PsE) of the prior dose have subsided, and • d. Pre-dose vital parameters and forced expiratory volume in one second (FEV1) are in normal range, or if outside of the normal range, are not clinically significant according to the investigator. • 3. Similarly, a third dose (18 mg) will only be administered if: • a. […] The 12 mg dose was safe and well-tolerated according to the investigator, and • c. Any PsE of the prior dose have subsided, and • d. Pre-dose vital parameters and forced expiratory volume in one second (FEV1) are in normal range, or if outside of the normal range, are not clinically significant according to the investigator.
The patients will be assessed for a peak psychedelic experience (based on a patient-scored visual analogue scale, the PE scale), sedation, and other endpoints after dosing. Follow-up visits are planned for Day 1, and Day 7 after the dosing day.
The following criteria must be met by all patients considered for clinical trial participation: • 1. Is female and in the age range between 18 and 45 years (inclusive) at screening. • 2. Has a body mass index (BMI) in the range of 18.5 and 35 kg/m^2 (inclusive) at screening. • 3. Meets the trial criteria for PPD as assessed by a trial psychiatrist or registered psychologist: • a. Diagnosis of Major Depressive Disorder without psychotic features, confirmed by the Mini-International Neuropsychiatric Interview (MINI), with peri-partum onset that began no earlier than gestation and no later than the first 4 weeks postpartum. • b. Has a Montgomery-Åsberg Depression Rating Scale (MADRS) total score of equal to or greater than 28 at screening and pre-dose on Day 0. • 6. […] Patients must have a negative pregnancy test at screening and on the pre-test day (Day −1). • 5. Is willing to delay start of other antidepressant or anxiety medication until after the end of the trial at Day 7 and agrees to keep any psychotherapy unchanged during the trial.
A potential patient who meets any of the following key exclusion criteria will be excluded from participation in this trial: • 1. Has, based on history, psychiatric assessment, and evaluation of the MINI, a current or prior diagnosis of bipolar disorder, a manic or hypomanic episode, a psychotic disorder, Major Depressive Disorder (MDD) or other mood disorder with psychotic features, obsessive compulsive disorder, post-traumatic stress disorder (PTSD), autism spectrum disorder, borderline personality disorder, schizophrenia, delusional disorder, paranoid personality disorder, schizoaffective disorder, clinically significant intellectual disability, or any other psychiatric comorbidity that renders the patient unsuitable for the trial according to the investigator's judgment. • 2. Has one or more first or second degree relatives with a current or previously diagnosed bipolar disorder, psychotic disorder or other mood disorder (including MDD) with psychotic features. • 3. Is in the judgement of a trial psychiatrist or registered psychologist, at significant risk for suicide based on history, psychiatric assessment, and evaluation of suicidal ideation and suicidal behaviour based on the Columbia-Suicide Severity Rating Scale (C-SSRS). • 4. Has taken anti-depressive medication within 14 days or 5 half-lives (whichever is longer) prior to dosing (exception: within the last 5 weeks in the case of fluoxetine). • 5.

[1] = PPD patient n=1, 6 mg then 12 mg
[2] = PPD patient n=1, 6 mg then 12 mg, 2 hr
[3] = PPD patient n=1, 6 mg then 12 mg, Day 1
[4] = PPD patient n=1, 6 mg then 12 mg, Day 7
[5] = PPD patient n=1, 6 mg then 12 mg, discharge
[6] = PPD patient n=1, Day 7 vs Day 0

`COc1ccc2[nH]cc(CCN(C)C)c2c1` [5-MeO-DMT] was tested, and the “tolerability of the inhalation procedure” value (PPD patient n=1) was “well tolerated with no inhalation-related adverse events”, the “MADRS remission criteria (MADRS total score equal or less than 10)” value [1] was “fulfilled” and the “MADRS response criteria (at least 50% improvement from baseline)” value [1] was “fulfilled”. The “time to clinical remission after administration” value [1] was ≤ 2 h, the “durability of clinical response” value (PPD patient n=1, 6 mg then 12 mg given on one day) was “sustained over the 7-day follow-up period” and the “Total MADRS improvement” value [2] was 24. The “Total MADRS score” value [2] was 5, the “BPRS Tension improvement” value [3] was 5 and the “Total MADRS improvement” value [3] was 29. The “Total MADRS score” value [3] was 0, the “BIMF item 1: I am a good mother” value [4] was 6 and the “BIMF item 2: I feel rested” value [4] was 2. The “BIMF item 3: I am comfortable with the way I've chosen to feed my baby (either bottle or breast, or both)” value [4] was 6, the “BIMF item 4: My baby and I understand each other” value [4] was 5 and the “BIMF item 5: I am able to relax and enjoy time with my baby” value [4] was 6. For the same compound, the “BIMF item 6: There are people in my life that I can trust to care for my baby when I need a break” value [4] was 6, the “BIMF item 8: I am getting enough adult interaction” value [4] was 6 and the “BIMF item 9: I am getting enough encouragement from other people” value [4] was 6. The “BIMF item 10: I trust my own feelings (instincts) when it comes to taking care of my baby” value [4] was 6, the “BIMF item 11: I take a little time each week to do something for myself” value [4] was 6 and the “BIMF item 12: I am taking good care of my baby's physical needs (feedings, changing diapers, doctor's appointments)” value [4] was 6. The “BIMF item 13: I am taking good care of my physical needs (eating, showering, etc)” value [4] was 5, the “BIMF item 14: I make good decisions about my baby's health and well being” value [4] was 6 and the “BIMF item 15: My baby and I are getting into a routine” value [4] was 6. The “BIMF item 16: I worry about how other people judge me (as a mother)” value [4] was 5, the “BIMF item 17: I am able to take care of my baby and my other responsibilities” value [4] was 5 and the “BIMF item 18: Anxiety or worry often interferes with my mothering ability” value [4] was 5. For the same compound, the “BIMF item 20: I am satisfied with the job I am doing as a new mother” value [4] was 5, the “Total MADRS improvement” value [4] was 28 and the “Total MADRS score” value [4] was 1. For the same compound, the “BIMF functional domain Adjustment score” value [4] was 6, the “BIMF functional domain Infant Care score” value [4] was 12 and the “BIMF functional domain Mother-Child Interaction score” value [4] was 17. The “BIMF functional domain Self Care score” value [4] was 13, the “BIMF functional domain Social Support score” value [4] was 18 and the “BIMF functional domain Management score” value [4] was 33. The “BIMF functional domain Psychological Well-being score” value [4] was 53, the “BPRS Blunted Affect score” value [5] was 1 and the “BPRS Conceptual disorganization score” value [5] was 1. The “BPRS Disorientation score” value [5] was 1, the “BPRS Grandiosity score” value [5] was 1 and the “BPRS Hallucinatory behaviour score” value [5] was 1. For the same compound, the “BPRS Hostility score” value [5] was 1, the “BPRS Mannerisms and Posturing score” value [5] was 1 and the “BPRS Motor retardation score” value [5] was 1. The “BPRS Suspiciousness score” value [5] was 1, the “BPRS Tension improvement” value [5] was 5 and the “BPRS Uncooperativeness score” value [5] was 1. For the same compound, the “BPRS Unusual Thought Content score” value [5] was 1, the “BIMF item 1: I am a good mother” value (PPD patient n=1, Day 0) was 6 and the “BIMF item 2: I feel rested” value (PPD patient n=1, Day 0) was 0. The “BIMF item 3: I am comfortable with the way I've chosen to feed my baby (either bottle or breast, or both)” value (PPD patient n=1, Day 0) was 6, the “BIMF item 4: My baby and I understand each other” value (PPD patient n=1, Day 0) was 5 and the “BIMF item 5: I am able to relax and enjoy time with my baby” value (PPD patient n=1, Day 0) was 5. For the same compound, the “BIMF item 6: There are people in my life that I can trust to care for my baby when I need a break” value (PPD patient n=1, Day 0) was 6, the “BIMF item 8: I am getting enough adult interaction” value (PPD patient n=1, Day 0) was 6 and the “BIMF item 9: I am getting enough encouragement from other people” value (PPD patient n=1, Day 0) was 5. For the same compound, the “BIMF item 10: I trust my own feelings (instincts) when it comes to taking care of my baby” value (PPD patient n=1, Day 0) was 5, the “BIMF item 11: I take a little time each week to do something for myself” value (PPD patient n=1, Day 0) was 5 and the “BIMF item 12: I am taking good care of my baby's physical needs (feedings, changing diapers, doctor's appointments)” value (PPD patient n=1, Day 0) was 6. For the same compound, the “BIMF item 13: I am taking good care of my physical needs (eating, showering, etc)” value (PPD patient n=1, Day 0) was 4, the “BIMF item 14: I make good decisions about my baby's health and well being” value (PPD patient n=1, Day 0) was 6 and the “BIMF item 15: My baby and I are getting into a routine” value (PPD patient n=1, Day 0) was 5. The “BIMF item 16: I worry about how other people judge me (as a mother)” value (PPD patient n=1, Day 0) was 3, the “BIMF item 17: I am able to take care of my baby and my other responsibilities” value (PPD patient n=1, Day 0) was 5 and the “BIMF item 18: Anxiety or worry often interferes with my mothering ability” value (PPD patient n=1, Day 0) was 2. For the same compound, the “BIMF item 19: As time goes on, I am getting better at taking care of my baby” value (PPD patient n=1, Day 0) was 0, the “BIMF item 20: I am satisfied with the job I am doing as a new mother” value (PPD patient n=1, Day 0) was 6 and the “reported adverse events (cramping left abdominal pain and headache)” value (PPD patient n=1, Day 0) was “mild, short-lasting and resolved spontaneously”. For the same compound, the “BIMF functional domain Adjustment score” value (PPD patient n=1, Day 0) was 5, the “BIMF functional domain Infant Care score” value (PPD patient n=1, Day 0) was 12 and the “BIMF functional domain Mother-Child Interaction score” value (PPD patient n=1, Day 0) was 15. The “BIMF functional domain Self Care score” value (PPD patient n=1, Day 0) was 9, the “BIMF functional domain Social Support score” value (PPD patient n=1, Day 0) was 17 and the “BIMF functional domain Management score” value (PPD patient n=1, Day 0) was 28. The “BIMF functional domain Psychological Well-being score” value (PPD patient n=1, Day 0) was 44, the “BIMF TOTAL score” value (PPD patient n=1, Day 0, possible total 120) was 92 and the “BIMF total score improvement, percent” value (PPD patient n=1, Day 7) was 14%. For the same compound, the “BIMF TOTAL score, Δ (Day 7)” value [6] was 13, the “BIMF functional domain Adjustment, % Improvement” value [6] was 20.00% and the “BIMF functional domain Infant Care, % Improvement” value [6] was 0.00%. The “BIMF functional domain Management, % Improvement” value [6] was 18%, the “BIMF functional domain Self Care, % Improvement” value [6] was 44% and the “BPRS Anxiety score” value (PPD patient n=1, baseline) was 7. For the same compound, the “BPRS Depressive Mood score” value (PPD patient n=1, baseline) was 6, the “BPRS Emotional Withdrawal score” value (PPD patient n=1, baseline) was 5 and the “BPRS Excitement score” value (PPD patient n=1, baseline) was 2. The “BPRS Guilt Feelings score” value (PPD patient n=1, baseline) was 6, the “BPRS Somatic Concern score” value (PPD patient n=1, baseline) was 6 and the “MADRS Apparent sadness score” value (PPD patient n=1, baseline) was 5. The “MADRS Concentration Difficulties score” value (PPD patient n=1, baseline) was 0, the “MADRS Inability to Feel score” value (PPD patient n=1, baseline) was 3 and the “MADRS Reduced Sleep score” value (PPD patient n=1, baseline) was 5. For the same compound, the “MADRS Reduced appetite score” value (PPD patient n=1, baseline) was 0, the “MADRS Reported sadness score” value (PPD patient n=1, baseline) was 4 and the “MADRS Suicidal Thoughts score” value (PPD patient n=1, baseline) was 0. The “Total MADRS score” value (PPD patient n=1, baseline) was 29, the “changes in vital parameters” value (PPD patient n=1, shortly after administration) was “temporary, clinically non-relevant increase in heart rate and blood pressure” and the “ECG, safety laboratory analyses, CADSS” value (PPD patient n=1, ECG 3 hours, laboratory 7 days, CADSS 3 hours, 1 day and 7 days) was “unremarkable”.
